This passage reports TGI results from PubChem BioAssay (NCI).

Common to all, as to assay: NCI tumour cell line growth inhibition, 48 h
Experiment [1] deals with OVCAR-3 ovarian.
Experiment [2] relates to LOX IMVI melanoma.
The subject of experiment [3] is MCF7 breast.
Experiment [4] has as its system UO-31 renal.
For experiment [5], the system named is TK-10 renal.
The test system of experiment [6] is NCI/ADR-RES ovarian.
Experiment [7] concerns DU-145 prostate.
Experiment [8] relates to SW-620 colon.
The subject of experiment [9] is OVCAR-8 ovarian.
The subject of experiment [10] is KM12 colon.

Each structure is given as a SMILES string.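 Values below derive from 48-hour exposures of cells grown in 96-well plates, with endpoints linearly interpolated between the two concentrations bracketing the appropriate inhibition level. TGI: total growth inhibition.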

For `CC(=O)Oc1ccc(C2SCc3nc4ccccc4n32)cc1` (stereo not given), the TGI was greater than 100 µM in [1]; greater than 100 µM in [2]; greater than 100 µM in experiment [3]; greater than 61.5 µM in [4]; greater than 100 µM in experiment [5]; 51.6 µM in experiment [6]. In addition, the TGI was greater than 100 µM in [7], greater than 100 µM in experiment [8], greater than 100 µM in [9] and 81.8 µM in experiment [10].
On to `N#C[C@H](c1nc2ccccc2[nH]1)c1nc2ccccc2nc1Cl`, for which the TGI is greater than 100 µM in [1]; 29.3 µM in experiment [2]; greater than 100 µM in experiment [3]; greater than 76.7 µM in experiment [4]; 37.4 µM in experiment [5]; greater than 100 µM in [6]. Moreover, the TGI in experiment [7] was 4.09 µM; in experiment [8], 29.5 µM; in experiment [9], greater than 100 µM; in experiment [10] it was 17.1 µM.
For `COc1cc(CNC(=O)CCCCCCCCCCSC#N)ccc1O`, the TGI in experiment [1] amounted to 26.2 µM; in experiment [2], 33 µM; in [3], 34.9 µM; in experiment [4], 21.9 µM; in [5], 44 µM; in [6], 59.7 µM. The TGI is 34.3 µM in experiment [7], 36.4 µM in [8], 43.2 µM in experiment [9] and 19.3 µM in experiment [10].
Take `O=C(O)COc1cccc2ccccc(=O)c12`: the TGI in experiment [1], in experiment [2], in experiment [3], in experiment [4], in [5] and in experiment [6] was greater than 100 µM throughout. Also, the TGI in [7], in experiment [8], in [9] and in [10] was greater than 100 µM each time.
In the case of `Cc1ccc(S(=O)(=O)N/N=C2/C3CC4CCC2C4C3)cc1` (stereo not given), the TGI in experiment [1], in experiment [2], in experiment [3], in experiment [4], in experiment [5] and in [6] was greater than 100 µM each time. Besides, the TGI in experiment [7], in [8], in experiment [9] and in experiment [10] was greater than 100 µM each time.
As to `COC(=O)CC(c1ccccc1)C(C#N)(OP1(=O)OC(c2ccccc2)C(C)N1C)c1ccccc1` (stereo not given), the TGI in [1], in experiment [2], in [3], in [4], in experiment [5] and in [6] was greater than 100 µM throughout. In addition, the TGI in experiment [7], in experiment [8], in experiment [9] and in [10] was greater than 100 µM in each case.
On to `CCN(CC)C(=O)N1CN(c2ccccc2)C2(CCN(CCCC3(c4ccc(F)cc4)OCCO3)CC2)C1=O`, for which the TGI in experiment [1] turned out to be 31.5 µM; in experiment [2], 26.2 µM; in experiment [3], 19.9 µM; in experiment [4], 35.9 µM; in experiment [5] it was 38.7 µM; in experiment [6], 46.4 µM. The TGI in [7] came out at 38.3 µM; in experiment [8], 40.4 µM; in experiment [9], 44.4 µM; in experiment [10], 31.1 µM.
With `O=c1[nH]nc(-c2ccccc2)c2[nH]c3c(c12)CCCc1ccccc1-3`, the TGI stood at 66.3 µM in experiment [1]; 33.7 µM in experiment [2]; 50.9 µM in experiment [3]; 34.7 µM in experiment [4]; 86.4 µM in experiment [5]; 32.5 µM in [6]. In addition, the TGI was 57.8 µM in [7], 50.8 µM in experiment [8], 50.7 µM in experiment [9] and 23.5 µM in [10].
`COc1ccc(OC)c2c1-c1nnnn1CCC2(C)C`: the TGI in experiment [1], in [2], in experiment [3], in [4], in experiment [5] and in [6] was greater than 100 µM throughout. For the same molecule, the TGI in experiment [7], in experiment [8], in experiment [9] and in [10] was greater than 100 µM in each case.
For `CC1(C)CC(=O)C(/C=N/c2nc(-c3cccc([N+](=O)[O-])c3)cs2)=C(O)C1`, the TGI was greater than 100 µM in experiment [1]; 27.2 µM in experiment [2]; 34 µM in experiment [3]; 74.9 µM in experiment [4]; 92.5 µM in [5]; 39.2 µM in experiment [6]. In addition, the TGI in experiment [7] is greater than 100 µM; in experiment [8] it was 25.6 µM; in experiment [9], 96.2 µM; in experiment [10] it was greater than 100 µM.
In the case of `Cc1nc2ccccc2n1Cc1ccc(NC(=S)NC2CCCCC2)cc1`, the TGI was greater than 70.3 µM in experiment [1]; greater than 100 µM in experiment [2]; 72.3 µM in [3]; greater than 100 µM in experiment [4]; greater than 100 µM in [5]; greater than 100 µM in experiment [6]. Further, the TGI in [7], in [8], in [9] and in [10] was greater than 100 µM each time.
Consider `O=c1ccc2c(Cl)sc(Cl)c2[nH]1`, for which the TGI in [1], in experiment [2], in experiment [3], in experiment [4], in experiment [5] and in [6] was greater than 100 µM throughout. For the same molecule, the TGI in experiment [7], in [8], in experiment [9] and in experiment [10] was greater than 100 µM in each case.
Regarding `COc1ccc(/C=C2\NC(=S)N(CN3CCOCC3)C2=O)cc1`, the TGI in experiment [1], in experiment [2], in [3], in experiment [4], in experiment [5] and in [6] was greater than 100 µM throughout. Also, the TGI in [7], in experiment [8], in experiment [9] and in experiment [10] was greater than 100 µM each time.
As for `CC(C)(C)OC(=O)/C=C/[C@@H](CCC(=O)/C=C/[C@H](/C=C\CCCC(=O)O)NC1(c2ccccc2)c2ccccc2-c2ccccc21)O[Si](C)(C)C(C)(C)C`, the TGI in [1] amounted to 32.9 µM; in [2], 27.6 µM; in experiment [3], 38.7 µM; in [4], 29.8 µM; in [5], 52 µM; in experiment [6] it was 32.6 µM. In addition, the TGI in experiment [7] worked out at 32.6 µM; in experiment [8] it was 81.6 µM; in [9], 55 µM; in [10], 43.5 µM.
